Experimental data reported in ChEMBL document CHEMBL1201862, “PubChem BioAssay data set” (2004).
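1) Cells in 96-well plates. 2) Compound, 48 h, 5 concentrations. 3) Linear interpolation between surrounding doses. 4) Unreached endpoint = highest concentration. Here, GI50 denotes the concentration required for 50% inhibition of growth.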 The source made the active and inactive calls. No stated cut-off is given here; in the data, active = GI50 up to about 1.1 µM and inactive = higher.

Key:
Test in all cases: DTP human tumour cell line panel, 48 h
[1] = test system: NCI-H23
[2] = test system: OVCAR-5
[3] = test system: NCI-H460
[4] = test system: HCC 2998
[5] = test system: HT-29
[6] = test system: OVCAR-3
[7] = test system: 786-0
[8] = test system: KM12
[9] = test system: A549
[10] = test system: CAKI-1
[11] = test system: SK-OV-3
[12] = test system: LOX IMVI
[13] = test system: U-251
[14] = test system: CCRF-CEM
[15] = test system: K562
[16] = test system: SW-620
[17] = test system: SK-MEL-28
[18] = test system: Malme-3M
[19] = test system: SF-539
[20] = test system: SK-MEL-5
[21] = test system: COLO 205
[22] = test system: SF-268
[23] = test system: BT-549
[24] = test system: HCT-15
[25] = test system: HCT-116
[26] = test system: NCI-H522
[27] = test system: SNB-19
[28] = test system: HOP-92
[29] = test system: UACC-257
[30] = test system: OVCAR-8
[31] = test system: MCF7
[32] = test system: MOLT-4
[33] = test system: M14
[34] = test system: RPMI-8226
[35] = test system: EKVX
[36] = test system: TK-10
[37] = test system: UO-31
[38] = test system: SR
[39] = test system: MDA-MB-231
[40] = test system: SNB-75
[41] = test system: SK-MEL-2
[42] = test system: OVCAR-4
[43] = test system: MDA-N
[44] = test system: NCI-H226
[45] = test system: ACHN
[46] = test system: A498
[47] = test system: SF-295
[48] = test system: NCI/ADR-RES
[49] = test system: MDA-MB-435
[50] = test system: UACC-62
[51] = test system: SN12C
[52] = test system: IGROV-1
[53] = test system: PC-3
[54] = test system: T47D
[55] = test system: DU-145
[56] = test system: Hs-578T
[57] = test system: HL-60
[58] = test system: HOP-62
[59] = test system: RXF 393

Cc1cccc(/C=N/NC(=S)N(C)CCc2ccccn2)n1
GI50 [1]: 467 nM (active) | GI50 [2]: 4930 nM (inactive) | GI50 [3]: 267 nM (active) | GI50 [4]: 453 nM (active) | GI50 [5]: 265 nM (active) | GI50 [6]: 85.3 nM (active) | GI50 [7]: 281 nM (active) | GI50 [8]: 687 nM (active) | GI50 [9]: 417 nM (active) | GI50 [10]: 421 nM (active) | GI50 [11]: 541 nM (active) | GI50 [12]: 207 nM (active) | GI50 [13]: 347 nM (active) | GI50 [14]: 28.8 nM (active) | GI50 [15]: 163 nM (active) | GI50 [16]: 361 nM (active) | GI50 [17]: 501 nM (active) | GI50 [18]: 361 nM (active) | GI50 [19]: 407 nM (active) | GI50 [20]: 314 nM (active) | GI50 [21]: 183 nM (active) | GI50 [22]: 278 nM (active) | GI50 [23]: 857 nM (active) | GI50 [24]: 196 nM | GI50 [25]: 256 nM (active) | GI50 [26]: 214 nM (active) | GI50 [27]: 729 nM (active) | GI50 [28]: 380 nM (active) | GI50 [29]: 448 nM (active) | GI50 [30]: 336 nM (active) | GI50 [31]: 420 nM (active) | GI50 [32]: 64.7 nM (active) | GI50 [33]: 329 nM (active) | GI50 [34]: 104 nM (active) | GI50 [35]: 391 nM (active) | GI50 [36]: 15200 nM (inactive) | GI50 [37]: 271 nM (active) | GI50 [38]: 246 nM (active) | GI50 [39]: 1160 nM (inactive) | GI50 [40]: 483 nM (active) | GI50 [41]: 661 nM (active) | GI50 [42]: 22900 nM (inactive) | GI50 [43]: 473 nM (active) | GI50 [44]: 390 nM (active) | GI50 [45]: 191 nM (active) | GI50 [46]: 285 nM (active) | GI50 [47]: 383 nM (active) | GI50 [48]: 269 nM (active) | GI50 [49]: 521 nM (active) | GI50 [50]: 287 nM (active) | GI50 [51]: 378 nM (active) | GI50 [52]: 366 nM (active) | GI50 [53]: 288 nM (active) | GI50 [54]: 123 nM (active) | GI50 [55]: 236 nM (active) | GI50 [56]: > 33000 nM (inactive) | GI50 [57]: 42.9 nM (active) | GI50 [58]: 320 nM (active)

CONC(C)=O
GI50 [1]: > 100000 nM (inactive) | GI50 [2]: > 100000 nM (inactive) | GI50 [3]: > 100000 nM (inactive) | GI50 [4]: > 100000 nM (inactive) | GI50 [5]: > 100000 nM (inactive) | GI50 [6]: > 100000 nM (inactive) | GI50 [7]: > 100000 nM (inactive) | GI50 [8]: > 100000 nM (inactive) | GI50 [9]: > 100000 nM (inactive) | GI50 [10]: > 100000 nM (inactive) | GI50 [11]: > 100000 nM (inactive) | GI50 [12]: > 100000 nM (inactive) | GI50 [13]: > 100000 nM (inactive) | GI50 [14]: > 100000 nM (inactive) | GI50 [15]: > 100000 nM (inactive) | GI50 [16]: > 100000 nM (inactive) | GI50 [17]: > 100000 nM (inactive) | GI50 [18]: > 100000 nM (inactive) | GI50 [19]: > 100000 nM (inactive) | GI50 [20]: > 100000 nM (inactive) | GI50 [21]: > 100000 nM (inactive) | GI50 [22]: > 100000 nM (inactive) | GI50 [23]: > 100000 nM (inactive) | GI50 [24]: > 100000 nM | GI50 [25]: > 100000 nM (inactive) | GI50 [26]: > 100000 nM (inactive) | GI50 [27]: > 100000 nM (inactive) | GI50 [29]: > 100000 nM (inactive) | GI50 [30]: > 100000 nM (inactive) | GI50 [31]: > 100000 nM (inactive) | GI50 [32]: > 100000 nM (inactive) | GI50 [33]: > 100000 nM (inactive) | GI50 [34]: > 100000 nM (inactive) | GI50 [35]: > 100000 nM (inactive) | GI50 [36]: > 100000 nM (inactive) | GI50 [37]: > 100000 nM (inactive) | GI50 [38]: > 100000 nM (inactive) | GI50 [39]: > 100000 nM (inactive) | GI50 [40]: > 100000 nM (inactive) | GI50 [41]: > 100000 nM (inactive) | GI50 [43]: > 100000 nM (inactive) | GI50 [44]: > 100000 nM (inactive) | GI50 [45]: > 100000 nM (inactive) | GI50 [46]: > 100000 nM (inactive) | GI50 [47]: > 100000 nM (inactive) | GI50 [48]: > 100000 nM (inactive) | GI50 [49]: > 100000 nM (inactive) | GI50 [50]: > 100000 nM (inactive) | GI50 [51]: > 100000 nM (inactive) | GI50 [52]: > 100000 nM (inactive) | GI50 [53]: > 100000 nM (inactive) | GI50 [54]: > 100000 nM (inactive) | GI50 [55]: > 100000 nM (inactive) | GI50 [56]: > 100000 nM (inactive) | GI50 [57]: > 100000 nM (inactive) | GI50 [58]: > 100000 nM (inactive)

Cc1ccc2c(O)cc(-c3ccccc3)nc2n1
GI50 [1]: 313 nM (active) | GI50 [2]: 2560 nM (inactive) | GI50 [3]: 57.4 nM (active) | GI50 [4]: 157 nM (active) | GI50 [5]: 37.8 nM (active) | GI50 [6]: 34.6 nM (active) | GI50 [7]: 222 nM (active) | GI50 [8]: 30.4 nM (active) | GI50 [9]: 221 nM (active) | GI50 [10]: 56.4 nM (active) | GI50 [11]: 105 nM (active) | GI50 [12]: 116 nM (active) | GI50 [13]: 87.5 nM (active) | GI50 [14]: 88.7 nM (active) | GI50 [15]: 36.6 nM (active) | GI50 [16]: 38.9 nM (active) | GI50 [17]: 181 nM (active) | GI50 [18]: 86.7 nM (active) | GI50 [19]: 191 nM (active) | GI50 [20]: 51.2 nM (active) | GI50 [21]: 37.8 nM (active) | GI50 [22]: 1560 nM (inactive) | GI50 [23]: 122 nM (active) | GI50 [24]: 35.2 nM | GI50 [25]: 50.7 nM (active) | GI50 [26]: 53.2 nM (active) | GI50 [27]: 309 nM (active) | GI50 [28]: 1440 nM (inactive) | GI50 [29]: 285 nM (active) | GI50 [30]: 217 nM (active) | GI50 [31]: 50.9 nM (active) | GI50 [32]: 116 nM (active) | GI50 [59]: 127 nM (active) | GI50 [33]: 64.3 nM (active) | GI50 [34]: 115 nM (active) | GI50 [35]: 1740 nM (inactive) | GI50 [36]: 120 nM (active) | GI50 [37]: 593 nM (active) | GI50 [38]: < 30.6 nM (active) | GI50 [39]: 467 nM (active) | GI50 [40]: 66.4 nM (active) | GI50 [41]: 103 nM (active) | GI50 [42]: 5240 nM (inactive) | GI50 [43]: 10.6 nM (active) | GI50 [44]: 472 nM (active) | GI50 [45]: 845 nM (active) | GI50 [47]: 58.5 nM (active) | GI50 [48]: 36.7 nM (active) | GI50 [49]: < 10 nM (active) | GI50 [50]: 52.1 nM (active) | GI50 [51]: 416 nM (active) | GI50 [52]: 110 nM (active) | GI50 [53]: 51.9 nM (active) | GI50 [54]: > 100000 nM (inactive) | GI50 [55]: 274 nM (active) | GI50 [56]: 91 nM (active) | GI50 [57]: 25.5 nM (active) | GI50 [58]: 366 nM (active)
